Experiments:
[1] = system: mouse whole blood metabolome; assay: Combined NMR and LC-MS metabolomics of mouse whole blood, metabolic time trajectories (cohort 3); format: in vivo; conditions: for NMR metabolic time trajectory of whole blood after radiation: PLS Q2 against D−5 baseline
Method: (§1) Cohort three comprised whole blood samples from mice exposed to a single dose of 9.6 Gy ^60Co-γ-radiation at a rate of 0.6 Gy/minute in the presence or absence of drug intervention (50 mg/kg or 200 mg/kg amifostine). A total of 300 blood samples were collected from 60 mice divided into five groups (12 mice per group). The five groups correspond to: (1) amifostine dosage of 50 mg/kg without radiation exposure, (2) amifostine dosage of 200 mg/kg without radiation exposure, (3) amifostine dosage of 50 mg/kg with radiation exposure, (4) amifostine dosage of 200 mg/kg with radiation exposure, and (5) a radiation exposure without an amifostine treatment. Blood samples were collected at five time-points: at day −5 (D−5), at time of amifostine dosage, day −1 (D−1), day 1 (D1), day 5 (D5) and day 9 (D9). Amifostine was delivered through a subcutaneous injection.
Mouse (n=236) and NHP (n=70) serum samples, and mouse blood samples (n=300) were simultaneously prepared for LC-MS and NMR analysis as shown in FIG. 1C. 2.0% by volume of NaN3 was added to each serum or blood sample to avoid bacterial growth. The protein component was precipitated by adding 100 μL (2×) of methanol to 50 μL of serum or blood. Deoxygenated methanol was used for the blood preparation to avoid unnecessary oxidation of the red blood cells. Methanol was purged of oxygen by bubbling in nitrogen gas for 30 minutes.
The 1:2 mixtures were then vortexed for 10 seconds. Serum samples were incubated at room temperature for 5 minutes. Blood samples were sonicated in a water bath for 10 minutes at 4° C., followed by incubation at −20° C. for 20 minutes. The samples were then centrifuged at 15,000×g for 20 minutes at 4° C. to pellet the proteins. The supernatant was collected, transferred to an Eppendorf tube, and centrifuged again at 15,000×g for 5 minutes at 4° C. The supernatant was then divided 20% and 80% for LC-MS and NMR samples, respectively. Samples were snap-frozen in liquid nitrogen. Methanol was evaporated by speed vacuum centrifugation (SpeedVac R Plus, Savant) and water was removed by lyophilization using FreeZone™ (Labconco, Kansas City, MO).
Dried serum or blood samples were reconstituted using 50 μL of 50 mM phosphate buffer in 100% D20 at pH 7.2 (uncorrected) with 50 μM TMSP as an NMR chemical shift reference and internal standard. The samples were centrifuged at 15,000×g for 20 minutes at 4° C. to remove any particulates, and the supernatant was transferred to 1.7 mm NMR tube for data acquisition. All NMR experiments were collected at 298K with a Bruker AVANCE III HD 700 MHz spectrometer equipped with a 5 mm quadruple resonance QCI-P cryoprobe (^1H, ^13C, ^15N and ^31P) with z-axis gradients. A SampleJet automated sample changer with Bruker ICON-NMR software was used to collect all data. […]

[2] = system: mice exposed to 9.6 Gy 60Co-γ-radiation; assay: Thirty-day survival of mice given amifostine before 9.6 Gy 60Co-γ-radiation (cohort 3); format: in vivo, mouse
Method: as §1
Lastly, to evaluate the radioprotective impact of amifostine treatment, cohort three also contained mice that received a subcutaneous injection of either 50 mg/kg or 200 mg/kg of amifostine 30 minutes (+10 minutes) before exposure to radiation. A total of 300 samples were collected from 60 mice divided into five groups (n=12): (1) 50 mg/kg amifostine treatment without radiation exposure (Am50), (2) 200 mg/kg amifostine treatment without radiation exposure (Am200), (3) only 9.6 Gy radiation exposure (RAD), (4) 9.6 Gy radiation exposure with a 50 mg/kg amifostine treatment (RAD+Am50), and (5) 9.6 Gy radiation exposure with a 200 mg/kg amifostine treatment (RAD+Am200). Serum samples were collected from each group at five different time points. Serum collected at five days and one day prior to radiation exposure were used as controls, and serum samples for metabolomics analysis were collected at 1, 5 and 9 days post-irradiation (Table 1).
Furthermore, an incremental decrease in survival began at day 11.

NCCCNCCSP(=O)(O)O [amifostine, 2-(3-aminpropyl) aminoethylphosphorothioate]
NMR metabolic time trajectory of whole blood after radiation ([1]; amifostine 50 mg/kg, 9.6 Gy): could not be discriminated from untreated controls
NMR metabolic time trajectory of whole blood after radiation ([1]; amifostine 200 mg/kg, 9.6 Gy, p=1.60×10^−7): reversed progression back towards the baseline norm (D−5) by D9
recovery of dysregulated metabolic pathways ([1]; amifostine 200 mg/kg, between D5 and D9 after radiation exposure): recovery of pathways including lipid metabolism, glycolysis, and TCA activity as well as energy and amino acid metabolism
LC-MS metabolic time trajectory of whole blood after radiation ([1]; amifostine treatment, 9.6 Gy, p=2.10×10^−2): divergence of trajectories from D5 to D9
survival at 30 days post-irradiation ([2]; amifostine 50 mg/kg subcutaneous, 30 minutes before 9.6 Gy, untreated irradiated animals 100% died): 40%
day at which incremental decrease in survival began ([2]; amifostine 50 mg/kg, 9.6 Gy): 11 days
animal survival 30 days post-irradiation ([2]; amifostine 200 mg/kg subcutaneous, 30 minutes prior to 9.6 Gy, untreated irradiated animals 100% died): 100%
